Laboratory results from patent publication US9718816B2, “1-phenoxy-3-(alkylamino)-propan-2-ol derivatives as CARM1 inhibitors and uses thereof” (Epizyme, Inc., priority 2013, dated 2017).

biological target: T1, CARM1 (Homo sapiens, UniProt Q86X55); assay: CARM1 enzyme assay on peptide substrate (3H-SAM Flashplate); type: biochemical; conditions: CARM1 0.25 nM, 3H-SAM 30 nM, peptide 250 nM, 30 min preincubation; read-out: Biochem IC50
T1 construct: Flag-CARM1-His; made in house; host or cells: HEK 293F cells infected with recombinant baculovirus (pFastBacMam)
T1 sequence (Q86X55 1-585 isoform Q86X55-1): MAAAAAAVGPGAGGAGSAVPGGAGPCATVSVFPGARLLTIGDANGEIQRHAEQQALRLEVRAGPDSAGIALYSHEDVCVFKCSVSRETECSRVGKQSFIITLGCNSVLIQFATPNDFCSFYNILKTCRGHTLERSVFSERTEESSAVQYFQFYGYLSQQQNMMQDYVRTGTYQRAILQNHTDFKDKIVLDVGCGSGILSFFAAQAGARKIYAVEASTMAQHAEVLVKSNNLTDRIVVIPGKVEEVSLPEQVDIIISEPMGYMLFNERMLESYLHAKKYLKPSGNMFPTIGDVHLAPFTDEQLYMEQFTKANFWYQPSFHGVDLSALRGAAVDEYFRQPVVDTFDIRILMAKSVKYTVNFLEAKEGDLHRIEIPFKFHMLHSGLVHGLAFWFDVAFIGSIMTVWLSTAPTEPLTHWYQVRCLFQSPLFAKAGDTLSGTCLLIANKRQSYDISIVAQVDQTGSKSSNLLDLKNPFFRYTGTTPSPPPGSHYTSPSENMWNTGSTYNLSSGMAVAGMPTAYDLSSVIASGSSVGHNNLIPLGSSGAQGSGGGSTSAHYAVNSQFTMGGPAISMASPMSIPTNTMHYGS
Text: S-adenosylmethionine (SAM), S-adenosylhomocysteine (SAH), bicine, Tween20, dimethylsulfoxide (DMSO), bovine skin gelatin (BSG), sodium butyrate and Tris(2-carboxyethyl)phosphine hydrochloride solution (TCEP) were purchased from Sigma-Aldrich at the highest level of purity possible. ^3H-SAM was purchase from American Radiolabeled Chemicals with a specific activity of 80 Ci/mmol. 384-well streptavidin Flashplates were purchased from PerkinElmer.
Peptide representative of human histone H3 residues 16-30 was synthesized with an N-terminal linker-affinity tag motif and a C-terminal amide cap by 21^St Century Biochemicals. The peptide was purified by high-performance liquid chromatography (HPLC) to greater than 95% purity and confirmed by liquid chromatography mass spectrometry (LC-MS). The sequence was Biot-Ahx-[…]-amide and contained a monomethylated arginine at position 26 (SEQ ID NO.:1).
Human CARM1 (PRMT4) (NM_199141.1) transcript clone was amplified from an HEK 293 cDNA library, incorporating a flanking 5′ sequence encoding a FLAG tag ([…]) (SEQ ID NO.:2) fused directly to Ala 2 of CARM1 and 3′ sequence encoding a hexa His sequence ([…]) (SEQ ID NO.:3) fused directly to Ser 608. The gene sequence encoding isoform1 containing a deletion of amino acids 539-561 was amplified subsequently and subcloned into pFastBacMam (Viva Biotech). Protein Expression
Recombinant baculovirus were generated according to Bac-to-Bac kit instructions (Life Technologies). Protein over-expression was accomplished by infecting exponentially growing HEK 293F cell culture at 1.3×10^6 cell/ml with virus (MOI=10) in the presence of 8 mM sodium butyrate. Infections were carried out at 37° C. for 48 hours, harvested by centrifugation, and stored at −80° C. for purification.
Column was washed with 500 mM NaCl in buffer A and Flag-CARM1-His was eluted with 200 ug/ml FLAG peptide in buffer A. Pooled fractions were dialyzed in 20 mM Tris, 150 mM NaCl, 5% glycerol and 1 mM DTT, pH 7.8. The purity of recovered protein was 94.
General Procedure for CARM1 Enzyme Assays on Peptide Substrates
The assays were all performed in a buffer consisting of 20 mM Bicine (pH=7.6), 1 mM TCEP, 0.005% BSG, and 0.002% Tween 20, prepared on the day of use. Compounds in 100% DMSO (1 ul) were spotted into a polypropylene 384-well V-bottom plates (Greiner) using a Platemate Plus outfitted with a 384-channel head (Thermo Scientific). DMSO (1 ul) was added to Columns 11, 12, 23, 24, rows A-H for the maximum signal control and 1 ul of SAH, a known product and inhibitor of CARM1, was added to columns 11, 12, 23, 24, rows I-P for the minimum signal control. A cocktail (40 ul) containing the CARM1 enzyme was added by Multidrop Combi (Thermo-Fisher). The compounds were allowed to incubate with CARM1 for 30 min at room temperature, then a cocktail (10 ul) containing ^3H-SAM and peptide was added to initiate the reaction (final volume=51 ul). The final concentrations of the components were as follows: CARM1 was 0.25 nM, ^3H-SAM was 30 nM, peptide was 250 nM, SAH in the minimum signal control wells was 1 mM, and the DMSO concentration was 2%. The assays were stopped by the addition of non-radiolabeled SAM (10 ul) to a final concentration of 300 uM, which dilutes the ^3H-SAM to a level where its incorporation into the peptide substrate is no longer detectable. 50 ul of the reaction in the 384-well polypropylene plate was then transferred to a 384-well Flashplate and the biotinylated peptides were allowed to bind to the streptavidin surface for at least 1 hour before being washed once with 0.1% Tween20 in a Biotek ELx405 plate washer. The plates were then read in a PerkinElmer TopCount plate reader to measure the quantity of ^3H-labeled peptide bound to the Flashplate surface, measured as disintegrations per minute (dpm) or alternatively, referred to as counts per minute (cpm). […]

| IC50 [nM] | Compound |
| --- | --- |
| 100 to 1000 | CNCC(O)COc1cccc(-c2cc(NCCCCCCNC(=O)c3cccnc3)c3cnn(C(C)C)c3n2)c1 (centres unmarked) [Example 65-1] |
| < 100 | COc1nc(C)cc(C)c1CNc1cc(-c2cccc(OCC(O)CN)c2)nc2c1cnn2C(C)C (centres unmarked) [Example 55-1] |
| 100 to 1000 | CNCC(O)COc1cccc(-c2cc(NCCCNC(=O)c3cccnc3)c3cnn(C(C)C)c3n2)c1 (centres unmarked) [Example 59-1] |
| 100 to 1000 | CNCC(O)COc1cccc(-c2cc(NCCNC(=O)c3cccnc3)c3cnn(C(C)C)c3n2)c1 (centres unmarked) [Example 56-1] |
| 100 to 1000 | CNCC(O)COc1cccc(-c2cc(NCCCNC(=O)c3ccn(C)n3)c3cnn(C(C)C)c3n2)c1 (centres unmarked) [Example 60-1] |
| 100 to 1000 | CNCC(O)COc1cccc(-c2cc(Nc3ccccn3)c3cnn(C(C)C)c3n2)c1 (centres unmarked) [Example 24-1] |
| 100 to 1000 | CC(C)n1ncc2c(NC(=O)NC3CCOCC3)cc(-c3cccc(OCC(O)CN)c3)nc21 (centres unmarked) [Example 49-1] |
| 100 to 1000 | CNCC(O)COc1cccc(-c2cc(N(C)c3ccccn3)c3cnn(C(C)C)c3n2)c1 (centres unmarked) [Example 33-1] |
| 100 to 1000 | CC(C)n1ncc2c(N3CCOCC3)cc(-c3cccc(OC[C@@H](O)CN)c3)nc21 [Example 12-1] |
| < 100 | CCNCC(O)COc1cccc(-c2cc(N3CCOCC3)c3cnn(C(C)C)c3n2)c1 (centres unmarked) [Example 31-1] |
| < 100 | CNCC(O)COc1cccc(-c2cc(NCc3cnc4ccccn34)c3cnn(C(C)C)c3n2)c1 (centres unmarked) [Example 53-1] |
| 100 to 1000 | CC(C)n1ncc2c(N(C)C3CCOCC3)cc(-c3cccc(OCC(O)CN)c3)nc21 (centres unmarked) [Example 28-1] |
| < 100 | CNCC(O)COc1cccc(-c2cc(NCCCCCN)c3cnn(C(C)C)c3n2)c1 (centres unmarked) [Example 32-1] |

test system: asymmetric di-methyl PABP1 in RKO cells; assay: RKO methylation assay (In Cell Western, asymmetric di-methyl PABP1); type: cell-based; conditions: Homo sapiens, 48 hours incubation, read-out: Cellular IC50
Text: RKO adherent cells were purchased from ATCC (American Type Culture Collection), Manassas, Va., USA. DMEM/Glutamax medium, penicillin-streptomycin, heat inactivated fetal bovine serum, 0.05% trypsin and D-PBS were purchased from Life Technologies, Grand Island, N.Y., USA. Odyssey blocking buffer, 800CW goat anti-rabbit IgG (H+L) antibody, and Licor Odyssey infrared scanner were purchased from Licor Biosciences, Lincoln, Nebr., USA. Asymmetric di-methyl PABP1 antibody was purchased from Cell Signaling Technology, Danvers, Mass., USA. Methanol was purchased from VWR, Franklin, Mass., USA. 10% Tween 20 was purchased from KPL, Inc., Gaithersburg, Md., USA. Paraformaldehyde (PFA) was purchased from EM Sciences. DRAQ5 was purchased from Biostatus Limited, Leicestershire, UK. […]
Calculations. First, the ratio for each well was determined by:
Each plate included fourteen control wells of DMSO only treatment (minimum inhibition) as well as fourteen control wells for maximum inhibition treated with 20 μM of a reference compound. The average of the ratio values for each control type was calculated and used to determine the percent […] for each test well in the plate. […]
Percent inhibition was determined and IC50 curves were generated using triplicate wells per concentration of compound.

| IC50 [nM] | Compound |
| --- | --- |
| 5000 to 10000 | CNCC(O)COc1cc(OC)cc(-c2cc(N3CCOCC3)n3ncc(C4CC4)c3n2)c1 (centres unmarked) [Example 18-6] |
